From PubChem BioAssay (NCI)
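1) Cells in 96-well plates. 2) Compound, 48 h, 5 concentrations. 3) Linear interpolation between surrounding doses. 4) Unreached endpoint = highest concentration. TGI denotes the concentration required for complete inhibition of growth.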

Columns and labels:
Experiment in all cases: inhibition of tumour cell growth, NCI panel, 48 h
NCI-H226 lung = test system: NCI-H226 lung
KM12 colon = test system: KM12 colon
DMS 114 small cell lung = test system: DMS 114 small cell lung
HOP-18 NSCLC = test system: HOP-18 NSCLC
SK-OV-3 ovarian = test system: SK-OV-3 ovarian
SR leukemia = test system: SR leukemia
A549 NSCLC = test system: A549 NSCLC
HT29 colon = test system: HT29 colon
LOX IMVI melanoma = test system: LOX IMVI melanoma
DMS 273 small cell lung = test system: DMS 273 small cell lung
SNB-19 CNS = test system: SNB-19 CNS
K-562 leukemia = test system: K-562 leukemia
SW-620 colon = test system: SW-620 colon
SK-MEL-28 melanoma = test system: SK-MEL-28 melanoma
RPMI-8226 leukemia = test system: RPMI-8226 leukemia
U251 CNS = test system: U251 CNS
SF-295 CNS = test system: SF-295 CNS
IGROV1 ovarian = test system: IGROV1 ovarian
NCI-H23 lung = test system: NCI-H23 lung
UO-31 renal = test system: UO-31 renal
UACC-62 melanoma = test system: UACC-62 melanoma
RXF-631 renal = test system: RXF-631 renal
SNB-75 CNS = test system: SNB-75 CNS
SF-268 CNS = test system: SF-268 CNS
COLO 205 colon = test system: COLO 205 colon
TK-10 renal = test system: TK-10 renal
CCRF-CEM leukemia = test system: CCRF-CEM leukemia
EKVX NSCLC = test system: EKVX NSCLC
786-0 renal = test system: 786-0 renal
RXF 393 renal = test system: RXF 393 renal
ACHN renal = test system: ACHN renal
M14 melanoma = test system: M14 melanoma
SNB-78 CNS = test system: SNB-78 CNS
DLD-1 colon = test system: DLD-1 colon
OVCAR-8 ovarian = test system: OVCAR-8 ovarian
M19-MEL melanoma = test system: M19-MEL melanoma
HL-60(TB) leukemia = test system: HL-60(TB) leukemia
SK-MEL-5 melanoma = test system: SK-MEL-5 melanoma
NCI-H460 lung = test system: NCI-H460 lung
LXFL 529 NSCLC = test system: LXFL 529 NSCLC
MOLT-4 leukemia = test system: MOLT-4 leukemia
SF-539 CNS = test system: SF-539 CNS
OVCAR-5 ovarian = test system: OVCAR-5 ovarian
OVCAR-4 ovarian = test system: OVCAR-4 ovarian
OVCAR-3 ovarian = test system: OVCAR-3 ovarian
HCT-15 colon = test system: HCT-15 colon
HCT-116 colon = test system: HCT-116 colon
CAKI-1 renal = test system: CAKI-1 renal
SK-MEL-2 melanoma = test system: SK-MEL-2 melanoma
UACC-257 melanoma = test system: UACC-257 melanoma
SN12C renal = test system: SN12C renal
A498 renal = test system: A498 renal
HOP-92 NSCLC = test system: HOP-92 NSCLC
NCI-H522 lung = test system: NCI-H522 lung
HCC-2998 colon = test system: HCC-2998 colon
MALME-3M melanoma = test system: MALME-3M melanoma
KM20L2 colon = test system: KM20L2 colon
HOP-62 NSCLC = test system: HOP-62 NSCLC

O=C1C(c2ccc([N+](=O)[O-])cc2)=[N+]([O-])c2ccc([N+](=O)[O-])cc21
TGI (NCI-H226 lung): > 100 µM
TGI (KM12 colon): > 100 µM
TGI (DMS 114 small cell lung): > 100 µM
TGI (HOP-18 NSCLC): > 100 µM
TGI (SK-OV-3 ovarian): 83.2 µM
TGI (SR leukemia): > 100 µM
TGI (A549 NSCLC): > 100 µM
TGI (HT29 colon): > 100 µM
TGI (LOX IMVI melanoma): > 100 µM
TGI (DMS 273 small cell lung): > 100 µM
TGI (SNB-19 CNS): > 100 µM
TGI (K-562 leukemia): > 100 µM
TGI (SW-620 colon): > 100 µM
TGI (SK-MEL-28 melanoma): > 100 µM
TGI (RPMI-8226 leukemia): > 100 µM
TGI (U251 CNS): > 100 µM
TGI (SF-295 CNS): > 100 µM
TGI (IGROV1 ovarian): 76.9 µM
TGI (NCI-H23 lung): > 100 µM
TGI (UO-31 renal): > 100 µM
TGI (UACC-62 melanoma): 47.5 µM
TGI (RXF-631 renal): > 100 µM
TGI (SNB-75 CNS): > 100 µM
TGI (SF-268 CNS): > 100 µM
TGI (COLO 205 colon): > 100 µM
TGI (TK-10 renal): > 100 µM
TGI (CCRF-CEM leukemia): 74.1 µM
TGI (EKVX NSCLC): > 100 µM
TGI (786-0 renal): > 100 µM
TGI (RXF 393 renal): > 100 µM
TGI (ACHN renal): > 100 µM
TGI (M14 melanoma): > 100 µM
TGI (SNB-78 CNS): > 100 µM
TGI (DLD-1 colon): > 100 µM
TGI (OVCAR-8 ovarian): > 100 µM
TGI (M19-MEL melanoma): 88.2 µM
TGI (HL-60(TB) leukemia): 43.7 µM
TGI (SK-MEL-5 melanoma): > 100 µM
TGI (NCI-H460 lung): > 100 µM
TGI (LXFL 529 NSCLC): > 100 µM
TGI (MOLT-4 leukemia): > 100 µM
TGI (SF-539 CNS): > 100 µM
TGI (OVCAR-5 ovarian): > 100 µM
TGI (OVCAR-4 ovarian): > 100 µM
TGI (OVCAR-3 ovarian): 55.8 µM

Cc1nc(N)nc(N)c1CCCCc1ccccc1
TGI (KM12 colon): > 100 µM
TGI (DMS 114 small cell lung): 24.1 µM
TGI (HOP-18 NSCLC): > 100 µM
TGI (HCT-15 colon): 63.3 µM
TGI (HCT-116 colon): > 100 µM
TGI (SK-OV-3 ovarian): > 100 µM
TGI (SR leukemia): 38.4 µM
TGI (A549 NSCLC): > 100 µM
TGI (HT29 colon): 16.9 µM
TGI (LOX IMVI melanoma): 23.9 µM
TGI (DMS 273 small cell lung): 20.5 µM
TGI (SNB-19 CNS): > 100 µM
TGI (CAKI-1 renal): > 100 µM
TGI (K-562 leukemia): 18.1 µM
TGI (SW-620 colon): > 100 µM
TGI (RPMI-8226 leukemia): 45.8 µM
TGI (SK-MEL-2 melanoma): 40.9 µM
TGI (U251 CNS): 51.4 µM
TGI (UACC-257 melanoma): 28.6 µM
TGI (SF-295 CNS): > 100 µM
TGI (IGROV1 ovarian): > 100 µM
TGI (NCI-H23 lung): 20.6 µM
TGI (SN12C renal): > 100 µM
TGI (UO-31 renal): > 100 µM
TGI (UACC-62 melanoma): 76.8 µM
TGI (A498 renal): > 100 µM
TGI (RXF-631 renal): 39.1 µM
TGI (SNB-75 CNS): > 100 µM
TGI (HOP-92 NSCLC): 54.6 µM
TGI (SF-268 CNS): 45.7 µM
TGI (COLO 205 colon): 21 µM
TGI (TK-10 renal): 88.7 µM
TGI (CCRF-CEM leukemia): 24.8 µM
TGI (EKVX NSCLC): > 100 µM
TGI (786-0 renal): 19 µM
TGI (NCI-H522 lung): 31.6 µM
TGI (HCC-2998 colon): 22.7 µM
TGI (RXF 393 renal): 49.8 µM
TGI (ACHN renal): > 100 µM
TGI (M14 melanoma): 19.7 µM
TGI (SNB-78 CNS): > 100 µM
TGI (DLD-1 colon): > 100 µM
TGI (OVCAR-8 ovarian): > 100 µM
TGI (MALME-3M melanoma): 26.5 µM
TGI (M19-MEL melanoma): 30.6 µM
TGI (HL-60(TB) leukemia): 20 µM
TGI (SK-MEL-5 melanoma): 17.1 µM
TGI (NCI-H460 lung): 81.4 µM
TGI (LXFL 529 NSCLC): 73.8 µM
TGI (MOLT-4 leukemia): 63.5 µM
TGI (SF-539 CNS): 36 µM
TGI (OVCAR-5 ovarian): > 100 µM
TGI (OVCAR-4 ovarian): > 100 µM
TGI (OVCAR-3 ovarian): 99.4 µM
TGI (KM20L2 colon): 63.3 µM
TGI (HOP-62 NSCLC): 56.4 µM

CN(C)C(=S)OC(Cn1cncn1)c1ccc(Cl)cc1Cl (stereo unspecified)
TGI (NCI-H226 lung): > 100 µM
TGI (KM12 colon): > 100 µM
TGI (DMS 114 small cell lung): > 100 µM
TGI (HOP-18 NSCLC): > 100 µM
TGI (HCT-15 colon): > 100 µM
TGI (HCT-116 colon): > 100 µM
TGI (SK-OV-3 ovarian): > 100 µM
TGI (A549 NSCLC): > 100 µM
TGI (HT29 colon): > 100 µM
TGI (LOX IMVI melanoma): > 100 µM
TGI (DMS 273 small cell lung): > 100 µM
TGI (SNB-19 CNS): > 100 µM
TGI (CAKI-1 renal): > 100 µM
TGI (K-562 leukemia): > 100 µM
TGI (SW-620 colon): > 100 µM
TGI (SK-MEL-28 melanoma): > 100 µM
TGI (RPMI-8226 leukemia): > 100 µM
TGI (SK-MEL-2 melanoma): > 100 µM
TGI (U251 CNS): > 100 µM
TGI (UACC-257 melanoma): > 100 µM
TGI (SF-295 CNS): > 100 µM
TGI (IGROV1 ovarian): > 100 µM
TGI (NCI-H23 lung): > 100 µM
TGI (SN12C renal): > 100 µM
TGI (UO-31 renal): > 100 µM
TGI (UACC-62 melanoma): > 100 µM
TGI (A498 renal): > 100 µM
TGI (RXF-631 renal): > 100 µM
TGI (SNB-75 CNS): > 100 µM
TGI (HOP-92 NSCLC): > 100 µM
TGI (SF-268 CNS): > 100 µM
TGI (COLO 205 colon): > 100 µM
TGI (TK-10 renal): > 100 µM
TGI (EKVX NSCLC): > 100 µM
TGI (786-0 renal): > 100 µM
TGI (NCI-H522 lung): > 100 µM
TGI (HCC-2998 colon): > 100 µM
TGI (RXF 393 renal): > 100 µM
TGI (ACHN renal): > 100 µM
TGI (M14 melanoma): > 100 µM
TGI (DLD-1 colon): > 100 µM
TGI (OVCAR-8 ovarian): > 100 µM
TGI (MALME-3M melanoma): > 100 µM
TGI (M19-MEL melanoma): > 100 µM
TGI (HL-60(TB) leukemia): > 100 µM
TGI (SK-MEL-5 melanoma): > 100 µM
TGI (NCI-H460 lung): > 100 µM
TGI (LXFL 529 NSCLC): > 100 µM
TGI (MOLT-4 leukemia): > 100 µM
TGI (SF-539 CNS): > 100 µM
TGI (OVCAR-5 ovarian): > 100 µM
TGI (OVCAR-4 ovarian): > 100 µM
TGI (OVCAR-3 ovarian): > 100 µM
TGI (KM20L2 colon): > 100 µM
TGI (HOP-62 NSCLC): > 100 µM
